Assay results published in US11753407B2, “Compounds for treating spinal muscular atrophy” (PTC Therapeutics, Inc., priority 2012, dated 2023).
Each block holds one molecule with its values, some of them ahead of it.

Tests used:
[1] = test system: Smn protein in SMA patient fibroblast cells (GM03813); assay: Smn protein assay in cultured cells (SMN HTRF); assay type: cell-based, human; conditions: SMA patient fibroblast cells, 48 hours; for EC1.5x for Smn protein expression: 7-point concentration curve, SMN HTRF, concentration producing 1.5 times Smn protein vs DMSO vehicle control; for maximum fold (Fold) increase of Smn protein: 7-point concentration data, fold relative to vehicle control
Summary of the method: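 SMA patient fibroblasts (5,000 cells/well, DMEM-10% FBS) were treated for 48 h at 37 °C with a 7-point, 3.16-fold dilution series in triplicate. RIPA lysates were probed by HTRF (anti-SMN d2/kryptate, overnight, room temperature), reading 665/620 nm. EC1.5× is the concentration giving 1.5-fold Smn over DMSO vehicle.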

[2] = test system: SMN2 minigene mRNA (SMN2-A minigene) in HEK293H cells; assay: SMN2 minigene mRNA splicing RT-qPCR assay in cultured cells; assay type: cell-based, human; conditions: Homo sapiens, HEK293-H; concentration increasing full length SMN2 mRNA 1.5-fold relative to vehicle-treated cells; HEK293H cells with SMN2-A minigene, 24 hours, 7-point concentration data; read-out: EC1.5x for production of full length SMN2 mRNA
Summary of the method: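 HEK293H cells stably carrying the SMN2-A minigene were treated for 24 h at 37 °C with a 7-point, 3.16-fold dilution series of compound. Multiplex RT-qPCR measured exon 7-containing minigene FL mRNA against GAPDH, expressed relative to vehicle by modified ΔΔCt; the EC1.5× is the concentration giving a 1.5-fold increase.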

Structure (SMILES): Cc1cc2cc(-c3cc(=O)n4cc(N5CCN(CCO)CC5)ccc4n3)oc2c(C)n1 [Compound 529, 2-(5,7-dimethylfuro[2,3-c]pyridin-2-yl)-7-[4-(2-hydroxyethyl)piperazin-1-yl]-4H-pyrido[1,2-a]pyrimidin-4-one]
EC1.5x for Smn protein expression [1]: *** (an EC1.5× between >0.3 μM and ≤1 μM is indicated by three stars (***))
maximum fold (Fold) increase of Smn protein [1]: ***** (a fold increase >1.65 is indicated by five stars (*****))
melting point: 256 to 258 °C
EC (1.5-fold increase) [2]: < 0.1 µM

Structure (SMILES): Cc1cn2nc(-c3cc(=O)n4cc(C5CCN(CCO)CC5)ccc4n3)cc2c(C)n1 [Compound 530, 2-(4,6-dimethylpyrazolo[1,5-a]pyrazin-2-yl)-7-[1-(2-hydroxyethyl)piperidin-4-yl]-4H-pyrido[1,2-a]pyrimidin-4-one]
EC1.5x for Smn protein expression [1]: **** (an EC1.5x≤0.3 μM is indicated by four stars (****))
maximum fold (Fold) increase of Smn protein [1]: ***** (a fold increase >1.65 is indicated by five stars (*****))
melting point: 228 to 230 °C
EC (1.5-fold increase) [2]: < 0.1 µM

Structure (SMILES): Cc1cn2nc(-c3cc(=O)n4cc(N5CCN(CCO)CC5)ccc4n3)cc2c(C)n1 [Compound 531, 2-(4,6-dimethylpyrazolo[1,5-a]pyrazin-2-yl)-7-[4-(2-hydroxyethyl)piperazin-1-yl]-4H-pyrido[1,2-a]pyrimidin-4-one]
EC1.5x for Smn protein expression [1]: *** (an EC1.5× between >0.3 μM and ≤1 μM is indicated by three stars (***))
maximum fold (Fold) increase of Smn protein [1]: ***** (a fold increase >1.65 is indicated by five stars (*****))
melting point: 246 to 248 °C
EC (1.5-fold increase) [2]: 0.1 to 0.3 µM

Structure (SMILES): Cc1cn2nc(-c3cc(=O)n4cc(N5CCN(CCO)[C@H](C)C5)ccc4n3)cc2c(C)n1 [Compound 532, 2-(4,6-dimethylpyrazolo[1,5-a]pyrazin-2-yl)-7-[(3R)-4-(2-hydroxyethyl)-3-methylpiperazin-1-yl]-4H-pyrido[1,2-a]pyrimidin-4-one]
EC1.5x for Smn protein expression [1]: **** (an EC1.5x≤0.3 μM is indicated by four stars (****))
maximum fold (Fold) increase of Smn protein [1]: ***** (a fold increase >1.65 is indicated by five stars (*****))
melting point: 238 to 240 °C
EC (1.5-fold increase) [2]: < 0.1 µM

Structure (SMILES): Cc1cn2cc(-c3cc(=O)n4cc(N5CCN(C6CC6)[C@@H](C)C5)ccc4n3)cc(Cl)c2n1 [Compound 535, 2-(8-chloro-2-methylimidazo[1,2-a]pyridin-6-yl)-7-[(3S)-4-cyclopropyl-3-methylpiperazin-1-yl]-4H-pyrido[1,2-a]pyrimidin-4-one]
EC1.5x for Smn protein expression [1]: *** (an EC1.5× between >0.3 μM and ≤1 μM is indicated by three stars (***))
maximum fold (Fold) increase of Smn protein [1]: ***** (a fold increase >1.65 is indicated by five stars (*****))
melting point: 253 to 257 °C
EC (1.5-fold increase) [2]: < 0.1 µM

Structure (SMILES): Cc1cn2cc(-c3cc(=O)n4cc(N5CCN(C6CCC6)[C@@H](C)C5)ccc4n3)cc(Cl)c2n1 [Compound 536, 2-(8-chloro-2-methylimidazo[1,2-a]pyridin-6-yl)-7-[(3S)-4-cyclobutyl-3-methylpiperazin-1-yl]-4H-pyrido[1,2-a]pyrimidin-4-one]
EC1.5x for Smn protein expression [1]: **** (an EC1.5x≤0.3 μM is indicated by four stars (****))
maximum fold (Fold) increase of Smn protein [1]: **** (a fold increase between >1.5 and ≤1.65 is indicated by four stars (****))
melting point: 228 to 232 °C
EC (1.5-fold increase) [2]: < 0.1 µM

Structure (SMILES): Cc1cn2cc(-c3cc(=O)n4cc(N5CCN(CCOCCO)[C@@H](C)C5)ccc4n3)cc(F)c2n1 [Compound 540, 2-(8-fluoro-2-methylimidazo[1,2-a]pyridin-6-yl)-7-{(3S)-4-[2-(2-hydroxyethoxy)ethyl]-3-methylpiperazin-1-yl}-4H-pyrido[1,2-a]pyrimidin-4-one]
maximum fold (Fold) increase of Smn protein [1]: *** (a fold increase between >1.35 and ≤1.5 is indicated by three stars (***))
melting point: 175 to 181 °C
EC (1.5-fold increase) [2]: < 0.1 µM

Structure (SMILES): Cc1cn2cc(-c3cc(=O)n4cc(N5CCN(C(C)C)[C@@H](C)C5)ccc4n3)cc(F)c2n1 [Compound 541, 2-(8-fluoro-2-methylimidazo[1,2-a]pyridin-6-yl)-7-[(3S)-3-methyl-4-(propan-2-yl)piperazin-1-yl]-4H-pyrido[1,2-a]pyrimidin-4-one]
EC1.5x for Smn protein expression [1]: *** (an EC1.5× between >0.3 μM and ≤1 μM is indicated by three stars (***))
maximum fold (Fold) increase of Smn protein [1]: ***** (a fold increase >1.65 is indicated by five stars (*****))
melting point: 191 to 194 °C
EC (1.5-fold increase) [2]: 0.1 to 0.3 µM

The next lines start with results.

melting point: 179 to 183 °C
Structure (SMILES): COCCN1CCN(c2ccc3nc(-c4cc(Cl)c5nc(C)cn5c4)cc(=O)n3c2)C[C@@H]1C [Compound 533, 2-(8-chloro-2-methylimidazo[1,2-a]pyridin-6-yl)-7-[(3S)-4-(2-methoxyethyl)-3-methylpiperazin-1-yl]-4H-pyrido[1,2-a]pyrimidin-4-one]
EC1.5x for Smn protein expression [1]: *** (an EC1.5× between >0.3 μM and ≤1 μM is indicated by three stars (***))
maximum fold (Fold) increase of Smn protein [1]: ***** (a fold increase >1.65 is indicated by five stars (*****))
EC (1.5-fold increase) [2]: < 0.1 µM

melting point: 201 to 205 °C
Structure (SMILES): Cc1cn2cc(-c3cc(=O)n4cc(N5CCN(CCOCCO)[C@@H](C)C5)ccc4n3)cc(Cl)c2n1 [Compound 534, 2-(8-chloro-2-methylimidazo[1,2-a]pyridin-6-yl)-7-{(3S)-4-[2-(2-hydroxyethoxy)ethyl]-3-methylpiperazin-1-yl}-4H-pyrido[1,2-a]pyrimidin-4-one]
EC1.5x for Smn protein expression [1]: **** (an EC1.5x≤0.3 μM is indicated by four stars (****))
maximum fold (Fold) increase of Smn protein [1]: ***** (a fold increase >1.65 is indicated by five stars (*****))
EC (1.5-fold increase) [2]: < 0.1 µM

melting point: 228 to 234 °C
Structure (SMILES): Cc1cn2cc(-c3cc(=O)n4cc(N5CCN(CCO)[C@@H](C)C5)ccc4n3)cc(Cl)c2n1 [Compound 537, 2-(8-chloro-2-methylimidazo[1,2-a]pyridin-6-yl)-7-[(3S)-4-(2-hydroxyethyl)-3-methylpiperazin-1-yl]-4H-pyrido[1,2-a]pyrimidin-4-one]
EC1.5x for Smn protein expression [1]: **** (an EC1.5x≤0.3 μM is indicated by four stars (****))
maximum fold (Fold) increase of Smn protein [1]: **** (a fold increase between >1.5 and ≤1.65 is indicated by four stars (****))
EC (1.5-fold increase) [2]: < 0.1 µM

melting point: 215 to 219 °C
Structure (SMILES): COCCN1CCN(c2ccc3nc(-c4cc(F)c5nc(C)cn5c4)cc(=O)n3c2)C[C@@H]1C [Compound 538, 2-(8-fluoro-2-methylimidazo[1,2-a]pyridin-6-yl)-7-[(3S)-4-(2-methoxyethyl)-3-methylpiperazin-1-yl]-4H-pyrido[1,2-a]pyrimidin-4-one]
EC1.5x for Smn protein expression [1]: *** (an EC1.5× between >0.3 μM and ≤1 μM is indicated by three stars (***))
maximum fold (Fold) increase of Smn protein [1]: **** (a fold increase between >1.5 and ≤1.65 is indicated by four stars (****))
EC (1.5-fold increase) [2]: < 0.1 µM

melting point: 270 to 274 °C
Structure (SMILES): Cc1cn2cc(-c3cc(=O)n4cc(N5CCN(CCO)[C@@H](C)C5)ccc4n3)cc(F)c2n1 [Compound 539, 2-(8-fluoro-2-methylimidazo[1,2-a]pyridin-6-yl)-7-[(3S)-4-(2-hydroxyethyl)-3-methylpiperazin-1-yl]-4H-pyrido[1,2-a]pyrimidin-4-one]
EC1.5x for Smn protein expression [1]: **** (an EC1.5x≤0.3 μM is indicated by four stars (****))
maximum fold (Fold) increase of Smn protein [1]: **** (a fold increase between >1.5 and ≤1.65 is indicated by four stars (****))
EC (1.5-fold increase) [2]: < 0.1 µM
